Experimental data: patent US20260354380A1, “PYRAZOLO PESTICIDAL COMPOUNDS” (BASF SE, priority 2022, published 2026)

Tests used:
Type in all cases: in vivo
Aedes aegypti = experiment: whole plant or invertebrate; settings: 800 ppm; larvae; 2 days
Summary of the method: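 Visual larval mortality was assessed 2 days after treatment (28±1 °C, 80±5% RH). Formulations of compounds or mixtures (75% water/25% DMSO) were applied by micro-atomizer onto diet of 5-15 newly hatched larvae per water-filled well, two replicates per concentration.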

Dichromothrips corbetti = experiment: Action on Orchid Thrips (Dichromothrips corbetti); settings: 300 ppm; adults; 72 hours after treatment
Procedure: Example B2: Action on Orchid Thrips (Dichromothrips corbetti)
Dichromothrips corbetti adults used for bioassay were obtained from a colony maintained continuously under laboratory conditions. For testing purposes, the test compound is diluted in a 1:1 mixture of acetone: water (vol: vol), plus Kinetic® HV at a rate of 0.01% v/v.
Thrips potency of each compound was evaluated by using a floral-immersion technique. All petals of individual, intact orchid flowers were dipped into treatment solution and allowed to dryin Petri dishes. Treated petals were placed into individual re-sealable plastic along with about 20 adult thrips. All test arenas were held under continuous light and a temperature of about 28 °C for duration of the assay. After 3 days, the numbers of live thrips were counted on each petal. The percent mortality was recorded 72 hours after treatment.

Anthonomus grandis = experiment: Action on Boll Weevil (Anthonomus grandis); settings: 800 ppm; egg and larval mortality; 5 days
Summary of the method: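 Diet in 96-well plates, seeded with 5-10 A. grandis eggs, received a spray of formulated compound (25% DMSO in water) at a range of concentrations, duplicated. Mortality of eggs and larvae was judged by eye after 5 days at about 25±1 °C, 75±5% relative humidity.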

Heliothis virescens = experiment: Action on Tobacco Budworm (Heliothis virescens); settings: 800 ppm; egg and larval mortality; 5 days
Summary of the method: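 Eggs (15-25 per well) on diet were held 5 days at about 28±1 °C, 80±5% RH, then egg and larval mortality was scored by eye. Beforehand the diet had been sprayed with compound dilutions formulated in water/DMSO 75:25 v/v, in two replicates.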

Plutella xylostella [1] = experiment: Action on Diamond Back Moth (Plutella xylostella), cabbage leaf dip, 3rd instar larvae; settings: 300 ppm; 3rd instar larvae; 72 hours after treatment
Summary of the method: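 Cabbage leaves dipped in compound solution (1:1 water:acetone, 0.01% v/v surfactant), air-dried, then infested with ten 3rd-instar larvae in petri dishes on moist filter paper. Mortality scored at 72 h after treatment; feeding damage rated on a 0–100% scale.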

Spodoptera eridania = experiment: Action on Southern Armyworm (Spodoptera eridania), 2nd Instar Larvae; settings: 300 ppm; 2nd instar larvae; 4 days after treatment
Summary of the method: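 2nd-instar Spodoptera eridania larvae (about 10–11 per pot) confined on sprayed, dried Lima bean plants (1st true leaf stage) in sealed bags. Spray solutions: acetone/water 1:1 plus 0.01% surfactant. Held 4 days near 25 °C, 20–40% RH; assessed for mortality and feeding reduction against untreated controls.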

Plutella xylostella [2] = experiment: Action on Diamond Back Moth (Plutella xylostella), microtiter plates, insect diet, eggs; settings: 800 ppm; egg and larval mortality; 5 days
Procedure: Example B8: Action on Diamond Back Moth (Plutella xylostella)
For evaluating control of diamond back moth (Plutella xylostella) the test unit consisted of 96-well-microtiter plates containing an insect diet and 15-25 P. xylostella eggs. The compounds or mixtures were formulated using a solution containing 75% water and 25% DMSO. Different concentrations of formulated compounds or mixtures were sprayed onto the insect diet at 5 μl, using a custom-built micro atomizer, at two replications. For experimental mixtures in these tests identical volumes of both mixing partners at the desired concentrations respectively, were mixed together. After application, microtiter plates were incubated at 28±1 °C, 80±5% RH for 5 days. Egg and larval mortality was then visually assessed.

SMILES | mortality in comparison with untreated controls (Aedes aegypti) | mortality in comparison with untreated controls (Dichromothrips corbetti) | mortality in comparison with untreated controls (Anthonomus grandis) | mortality in comparison with untreated controls (Heliothis virescens) | mortality in comparison with untreated controls (Plutella xylostella [1]) | mortality in comparison with untreated controls (Spodoptera eridania) | mortality in comparison with untreated controls (Plutella xylostella [2])
COc1ccc(C(C)C)c(N2C(=O)CSC2=NC(=O)Nc2ccc(-n3nc(C)c(NC(=O)c4ccc(OC(F)(F)F)cc4)c3C)cc2Cl)c1 [Example C-44] | at least 50% | at least 75% | at least 75% | at least 75% | at least 75% |  | 
Cc1nn(-c2ccc(NC(=O)/N=C3\SCC(=O)N3c3cc(N(C)C)ccc3C(C)C)cc2)c(C)c1NC(=O)c1ccc(OC(F)(F)F)cc1 [Example C-17] | at least 50% | at least 75% | at least 75% | at least 75% | at least 75% | at least 75% | 
CCN(C(=O)c1ccc(OC(F)(F)F)cc1)c1c(C)nn(-c2ccc(NC(=O)/N=C3\SCC(=O)N3c3cc(C)ccc3C(C)C)c(Cl)c2)c1C [Example C-97] | at least 50% | at least 75% | at least 75% | at least 75% | at least 75% | at least 75% | 
Cc1ccc(C(F)(F)F)c(N2C(=O)CSC2=NC(=O)Nc2ccc(-n3cc(N(C)C(=O)c4ccc(OC(F)(F)F)cc4)c(C)n3)cc2)c1 [Example C-11] | at least 50% | at least 75% | at least 75% | at least 75% | at least 75% | at least 75% | 
Cc1ccc(C(C)C)c(N2C(=O)CSC2=NC(=O)Nc2ccc(-n3nc(C)c(NC(=O)c4ccc(Cl)c(C#N)c4)c3C)cc2)c1 [Example C-118] |  |  | at least 75% |  | at least 75% |  | at least 75%
Cc1ccc(C(C)C)c(N2C(=O)CSC2=NC(=O)Nc2ccc(-n3nc(C)c(NC(=O)c4ccc(F)c(F)c4)c3C)cc2)c1 [Example C-114] | at least 50% |  | at least 75% | at least 75% |  | at least 75% | at least 75%
Cc1ccc(C(C)C)c(N2C(=O)CS/C2=N\C(=O)Nc2ccc(-n3nc(C)c(NC(=O)c4ccc(OC(F)(F)F)cc4)c3C)nc2)c1 [Example C-22] |  | at least 75% |  |  | at least 75% | at least 75% | 
Cc1ccc(C(C)C)c(N2C(=O)CSC2=NC(=O)Nc2ccc(-n3nc(C)c(NC(=O)c4ccc(Cl)c(F)c4)c3C)cc2)c1 [Example C-109] | at least 50% |  | at least 75% | at least 75% |  | at least 75% | at least 75%
Cc1ccc(C(C)C)c(N2C(=O)CS/C2=N\C(=O)Nc2cc(C)c(-n3nc(C)c(NC(=O)c4ccc(OC(F)(F)F)cc4)c3C)cc2Cl)c1 [Example C-99] | at least 50% |  | at least 75% | at least 75% |  | at least 75% | at least 75%
